# pIC50, pKd: −log10 of the molar value.
# Key:
# [1] = test system: LDLR level in HepG2 cells; experiment: Effect on the LDLR level in HepG2 cells (ELISA); assay type: cell-based, human; parameters: concentration or dose not given beside the values; conditions: 48 hours incubation, LDLR ELISA of lysate
# Procedure: To detect the effect of the compounds on the LDLR protein level.
# Envision (PE-Cisbio: 2105-0020), centrifuge (Eppendorf: 5810R), water purifier (THERMO: Pacific T II+Micropure), plate washer (Thermo: […] VERSA), and microplate shaker (Thermo: 88882006)
# • 1) HepG2 cell strain was cultured in the complete culture medium at 37° C., 5% CO2 to 70-90% confluence. • 2) The cells were digested and resuspended in the experimental culture medium, inoculation was performed at 25,000 cells/well/200 μL in a 96-well cell culture plate, and the cells were cultured at 37° C., 5% CO2 for 20-24 hours. • 3) The culture medium was removed from the cell culture plate, and the cell culture plate was washed once by adding 200 μl of the experimental culture medium to each well. • 4) Preparation of positive control compound and compound to be tested: the positive control compound and the compound to be tested were diluted on the compound plate. • 5) The diluted compound was added to the cell culture plate at 250 μL per well and incubated at 37° C. and 5% CO2 for 48 hours. • 6) The cell culture medium was removed, the cells were washed with PBS, and 50 μL of the cell lysis buffer and the protein inhibitor were added. • 7) After centrifugation, the lysate was removed and the sample was stored for later use. • 8) Preparation of standard curve: corresponding volumes of Dilution buffer were successively added to respective standard tubes, and the standard was diluted in series by taking the corresponding volume from the original tube or the last concentration tube. • 9) Preparation of washing liquid: 10× Wash buffer was diluted into 1× with Milli-Q for later use. • 10) According to the standard curve wells and sample wells set according to a plate map, 80 μL/well of the corresponding standards and samples were added to the wells, with 2 replicate wells. A well in which no standard was added was used as a background value well. A self-adhesive seal was applied, the plate was placed on a plate shaker at room temperature, gently shaken, uniformly mixed, and incubated for 2 hours. • 11) The plate was placed on the plate washer, the washing liquid was set to 350 μL per well, and the plate was washed 4 times repeatedly. • 12) 200 μL of Human LDLR conjugate was added, a self-adhesive seal was applied, and the plate was placed on the plate shaker, well mixed uniformly, and incubated for 2 hours. • 13) The plate was placed on the plate washer, the washing liquid was set to 350 μL per well, and the plate was washed 4 times repeatedly. • 14) 200 μL/well of Substrate solution was added, and the plate was placed in the dark, applied with a self-adhesive seal, placed on the plate shaker, well mixed uniformly, and incubated for 20 minutes. • 15) 50 μL/well of Stop solution was added and mixed uniformly over 20 min. • 16) The optical density (OD) value in each well was measured in sequence at a wavelength of 450 nm by the microplate reader.
# After the OD values were read by the microplate reader, the OD value of the 0-concentration standard in the standard group was subtracted from the OD values of the standards, control group, and samples to obtain the actual OD values for these wells. A standard curve was plotted with Graphpad and the concentration of the sample was calculated. If the dilution was performed during the sample detection, the calculated sample concentration was necessarily multiplied by the corresponding dilution ratio in the final calculation, which was the actual concentration of the sample. Concentration increase %=(actual concentration in control-actual concentration in sample)/actual concentration in control*100.
# [2] = biological target: PCSK9 secreted by HepG2 cells (Homo sapiens (Human), UniProt Q8NBP7); experiment: Effect on the concentration of PCSK9 secreted by HepG2 cells (ELISA); assay type: cell-based; conditions: 48 hours incubation, read-out: Inhibitory activity on PCSK9, IC50
# Sequence of PCSK9 secreted by HepG2 cells (Q8NBP7 153-692): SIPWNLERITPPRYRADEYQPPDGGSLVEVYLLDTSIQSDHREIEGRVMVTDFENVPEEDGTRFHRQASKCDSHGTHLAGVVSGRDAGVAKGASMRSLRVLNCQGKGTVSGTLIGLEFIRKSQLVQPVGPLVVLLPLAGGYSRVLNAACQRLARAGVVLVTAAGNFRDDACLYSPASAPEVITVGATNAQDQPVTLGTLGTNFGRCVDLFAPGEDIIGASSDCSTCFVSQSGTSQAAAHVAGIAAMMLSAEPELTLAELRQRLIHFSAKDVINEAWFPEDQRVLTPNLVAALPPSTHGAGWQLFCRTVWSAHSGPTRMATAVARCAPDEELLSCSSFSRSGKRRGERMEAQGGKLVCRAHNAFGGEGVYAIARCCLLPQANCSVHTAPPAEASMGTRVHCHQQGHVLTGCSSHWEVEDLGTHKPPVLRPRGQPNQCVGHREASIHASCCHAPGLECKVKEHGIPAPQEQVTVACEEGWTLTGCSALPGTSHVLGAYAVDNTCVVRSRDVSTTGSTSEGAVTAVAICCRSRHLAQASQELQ
# Sequence of PCSK9 secreted by HepG2 cells (Q8NBP7 31-152 partner): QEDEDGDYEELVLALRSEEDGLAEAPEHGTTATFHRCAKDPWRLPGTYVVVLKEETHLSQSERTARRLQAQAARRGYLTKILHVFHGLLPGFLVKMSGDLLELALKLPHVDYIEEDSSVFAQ
# PCSK9 protein = PCSK9 protein (Homo sapiens (Human), UniProt Q8NBP7); experiment: Binding experiment: surface plasmon resonance (SPR) binding to PCSK9 protein
# Sequence of PCSK9 protein (Q8NBP7 153-692): as the sequence (Q8NBP7 153-692) above
# From the text: • 1. Experimental objective: To detect the action of compounds to bind PCSK9 protein by a conventional surface plasmon resonance (SPR) method.
# [3] = test system: hyperlipidemia animal model of B6-hPCSK9 transgenic mice; experiment: In vivo pharmacodynamics in hyperlipidemia animal model of B6-hPCSK9 transgenic mice; parameters: species or system B6-hPCSK9 transgenic C57 mice; conditions: PO administration, Day 14, high-fat feed
# Procedure: The compounds of the present disclosure were evaluated for in vivo pharmacodynamics in a hyperlipidemia animal model of B6-hPCSK9 transgenic mice.
# B6-hPCSK9 transgenic C57 mice, 6-8 weeks old, male, purchased from Jiangsu GemPharmatech Co., Ltd.
# After delivery to a barrier system, the animals were given one week for acclimatization and began to feed on the high-fat feed. The body weight and feed weight were weighed once a week, and the body weight and food intake thereof were recorded.
# a. The animals were grouped by a random grouping method.
# c. According to the grouping results, administration with the test drug was started (mode of administration: oral administration; administration volume: 10 mL/kg; frequency of administration: once/day or single administration; administration cycle: 21 days; vehicle: 10% Solutol HS 15/90% Saline).
# d. After the test drug was administered, the body weight and feed weight were weighed twice a week and blood was taken once a week.
# e. The data was processed with software such as Excel. […] PCSK9 in plasma was detected by ELISA.
# [4] = Pharmacokinetic determination in mice (plasma); assay type: in vivo, C57BL/6J mice; conditions: C57 mice, PO administration, 5 mpk; for AUC(0-inf) / half-life / MRT / Cmax: male, C57BL/6J, mouse, 5 mg/kg; for AUC(0-inf): read-out: Area under the curve AUC0-∞; for half-life: read-out: Half-life t1/2 (converted); for MRT: read-out: Mean residence time MRT; for Cmax: read-out: Plasma concentration Cmax
# In short: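 Male C57BL/6J mice (n=3 per route), fasted overnight, got 5 mg/kg PO in 10% Solutol HS15 or 1 mg/kg IV in 5% DMSO/10% Solutol HS15/85% PBS. Orbital blood was sampled at 0.083 (IV only), 0.25, 0.5, 1, 2, 4, 8 and 24 h. EDTA-K2 plasma was quantified by LC-MS/MS for PK parameters.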
SMILES,LDLR expression level [1] [%],pIC50 [2],pKd (PCSK9 protein),"LDL-C change, Day 14 ([3]; 6 mpk) [%]","LDL-C change, Day 14 ([3]; 3 mpk) [%]",Time to peak tmax [4] [h],AUC(0-inf) [4] [ng·h/mL],half-life [4] [h],MRT [4] [h],Cmax [4] [ng/mL],"LDL-C change, Day 14 ([3]; 5 mpk) [%]","LDL-C change, Day 14 ([3]; 10 mpk) [%]"
"O=c1ccccn1-c1ccc(N[C@H]2CC[C@H](Nc3ncc4cccn4n3)C2)nc1 [Example 20, 6′-(((1S,3S)-3-(pyrrolo[2,1-f][1,2,4]triazin-2-ylamino)cyclopentyl)amino)-2H-[1,3′-bipyridinyl]-2-one]",302,4.85,8.62,,,,,,,,,
"O=c1ccccn1-c1ccc(N[C@H]2CC[C@H](Nc3nc4cc(F)ccn4n3)C2)nc1 [Example 27, 6′-((3-(((1S,3S)-7-fluoro-[1,2,4]triazolo[1,5-a]pyridin-2-yl)amino)cyclopentyl)amino)-2H-[1,3′-bipyridinyl]-2-one]",,,8.59,−31.52,,,,,,,,
"O=C1c2ncccc2CN1c1ccc(N[C@H]2CC[C@H](Nc3ncc(OC(F)F)cn3)C2)nc1 [Example 57, 6-(6-(((1S,3S)-3-((5-(difluoromethoxy)pyrimidin-2-yl)amino)cyclopentyl)amino)pyridin-3-yl)-5,6-dihydro-7H-pyrrolo[3,4-b]pyridin-7-one]",,4.66,,,−46.22,1,41500,5.9,4.8,9960,,
"O=C1c2cccnc2CN1c1ccc(N[C@H]2CC[C@H](Nc3ncc(OC(F)F)cn3)C2)nc1 [Example 77, 6-(6-(((1S,3S)-3-((5-(difluoromethoxy)pyrimidin-2-yl)amino)cyclopentyl)amino)pyridin-3-yl)-6,7-dihydro-5H-pyrrolo[3,4-b]pyridin-5-one]",117,,8.82,,,0.25,8080,4.3,2.1,4720,,
"O=C1c2ncccc2CN1c1ccc(N[C@H]2CC[C@H](Nc3nc4cc(F)ccn4n3)C2)nc1 [Example 129, 6-(6-(((1S,3S)-3-((7-fluoro-[1,2,4]triazolo[1,5-a]pyridin-2-yl)amino)cyclopentyl)amino)pyridin-3-yl)-5,6-dihydro-7H-pyrrolo[3,4-b]pyridin-7-one]",,5.13,,,,0.5,9640,3.9,1.5,4880,−21.98,
"O=C1c2ncccc2CN1c1ccc(N[C@H]2CC[C@H](Nc3ncc(C(F)(F)F)cn3)C2)nc1 [Example 134, 6-(6-(((1S,3S)-3-((5-(trifluoromethyl)pyrimidin-2-yl)amino)cyclopentyl)amino)-3-yl)-5,6-dihydro-7H-pyrrolo[3,4-b]pyridin-7-one]",,5.66,,,,2,76600,4.1,5.8,9360,−60.65,
"O=C1c2ncccc2CN1c1ccc(N[C@H]2CC[C@H](Nc3nc4cc(C(F)(F)F)ccn4n3)C2)nc1 [Example 143, 6-(6-(((1S,3S)-3-((7-(trifluoromethyl)-[1,2,4]triazolo[1,5-a]pyridin-2-yl)amino)cyclopentyl)amino)pyridin-3-yl)-5,6-dihydro-7H-pyrrolo[3,4-b]pyridin-7-one]",,,8.92,,,1,11600,3.9,2.2,3870,,−34.97
"Cc1cc2c(cn1)CN(c1ccc(N[C@H]3CC[C@H](Nc4nc5cc(F)ccn5n4)C3)nc1)C2=O [Example 147, 2-(6-(((1S,3S)-3-((7-fluoro-[1,2,4]triazolo[1,5-a]pyridin-2-yl)amino)cyclopentyl)amino)pyridin-3-yl)-6-methyl-2,3-dihydro-1H-pyrrolo[3,4-c]pyridin-1-one]",,4.62,,,−23.20,2,52000,4.4,4.8,8230,,
"Cc1nccc2c1CN(c1ccc(N[C@H]3CC[C@H](Nc4nc5cc(F)ccn5n4)C3)nc1)C2=O [Example 149, 2-(6-(((1S,3S)-3-((7-fluoro-[1,2,4]triazolo[1,5-a]pyridin-2-yl)amino)cyclopentyl)amino)pyridin-3-yl)-4-methyl-2,3-dihydro-1H-pyrrolo[3,4-c]pyridin-1-one]",,4.81,8.85,,,0.5,24200,4.8,2.4,12300,,−41.65
"O=C1c2cc(C(F)(F)F)ncc2CN1c1ccc(N[C@H]2CC[C@H](Nc3nc4cc(F)ccn4n3)C2)nc1 [Example 151, 2-(6-(((1S,3S)-3-((7-fluoro-[1,2,4]triazolo[1,5-a]pyridin-2-yl)amino)cyclopentyl)amino)pyridin-3-yl)-6-(trifluoromethyl)-2,3-dihydro-1H-pyrrolo[3,4-c]pyridin-1-one]",138,5.89,,,,2,97700,15.1,19,7420,,
"Cc1cc2c(cn1)CN(c1ccc(N[C@H]3CC[C@H](Nc4nc5cc(C(F)(F)F)ccn5n4)C3)nc1)C2=O [Example 156, 6-Methyl-2-(6-(((1S,3S)-3-((7-(trifluoromethyl)-[1,2,4]triazolo[1,5-a]pyridin-2-yl)amino)cyclopentyl)amino)pyridin-3-yl)-2,3-dihydro-1H-pyrrolo[3,4-c]pyridin-1-one]",,5.68,8.32,,,1,19700,3.6,3.2,5010,,−25.97
"O=C1c2cccc(C(F)(F)F)c2CN1c1ccc(N[C@H]2CC[C@H](Nc3ncc(C(F)(F)F)nn3)C2)nc1 [Example 158, 4-(Trifluoromethyl)-2-(6-(((1S,3S)-3-((6-(trifluoromethyl)-1,2,4-triazin-3-yl)amino)cyclopentyl)amino)pyridin-3-yl) isoindolin-1-one]",,5.72,,,,4,22400,16.2,19.5,2320,,−28.97

# Source: patent US20250326722A1 (SHANGHAI HANSOH BIOMEDICAL CO., LTD., priority 2022, published 2025)
